{"source": "patent US12577138B2", "about": "“Using Daphnia for bioremediation” (priority 2019, dated 2026)", "tested_on": "Daphnia magna genotype pools", "test": "Viability of Daphnia magna genotype pools (1999, 1980, 1960) exposed to Carbaryl for four weeks", "assay_type": "in vivo", "settings": "Carbaryl 10 μg/L", "protocol": "The ability to thrive of different Daphnia magna genotype pools resurrected from 1999, 1980, and 1960, was tested in presence of high concentrations of the carbamate insecticide Carbaryl (10 μg/L). Carbamate pesticides have been used at high levels since the 1970s, and so carbamate pesticides represent a common contaminant to current wastewater.\nThe three genotype pools were exposed to high concentrations of the carbamate insecticide Carbaryl in replicated large aquaria of 10 L. The aquaria contained borehole water to which a known concentration of Carbaryl was added. Each pool comprised different genotypes but the number of individuals in each pool was identical.\nPrior to the exposure, the genotypes were individually cultured for two generations in the following conditions to control for maternal effects and synchronize reproduction: 20° C.; long photoperiod (16:8 light:dark regime); feed daily with 0.8 mg Carbon/L of C. vulgaris; medium was renewed every second day. After this phase, five 24-48 h old juveniles from the second brood of the third generation from 7 genotypes of each pool were randomly assigned to three replicated 10 L aquaria resulting in a total of 105 animals per aquarium (5 juveniles×7 genotypes×3 pools). The aquaria were then exposed to Carbaryl for four weeks (3 clonal generations). […]\nThe initial occurrence of each pool of genotypes was then compared to the random subset of animals sampled at the end of the experiment and genetically fingerprinted. This allowed to quantify changes in the occurrence of pool of genotypes from the three initially equally inoculated three pools. Changes in the occurrence of each pool of genotypes between the inoculum and the end of the experiment were quantified with a chi-squared test using the “stats” package in R v. […]"}
{"smiles": "CNC(=O)Oc1cccc2ccccc12", "note": "[Carbaryl]", "values": [{"measurement": "change in occurrence of genotypes versus initial inoculum", "setting": "1960 pool", "value": "did not experience a significant change in the number of genotypes"}, {"measurement": "change in occurrence of genotypes versus initial inoculum", "setting": "1980 pool", "value": "significantly decrease in the number of genotypes and almost disappeared"}, {"measurement": "change in occurrence of genotypes versus initial inoculum", "setting": "1999 pool", "value": "did not experience a significant change in the number of genotypes"}]}
